Data as given in patent US20250082781A1, “METHODS OF LOWERING BLOOD GLUCOSE AND TREATING TYPE 2 DIABETES BY ACTIVATION OF PDE4D3” (Salk Institute for Biological Studies, priority 2021, published 2025).

Columns and labels:
[1] = test system: hepatic gluconeogenic intermediates; experiment: Hepatic metabolite levels (targeted metabolomics, kits); format: in vivo, mouse
Experimental: Polar metabolites were extracted and analyzed using a previously reported method (Yuan et al., 2012). Briefly, ob/ob mice were sacrificed by cervical dislocation. Liver pieces (50-100 mg) were snap frozen in liquid nitrogen. 1 ml LC-MS grade 80% methanol chilled at −80° C. was added per 100 mg tissue on dry ice. Samples were homogenized by TissueLyzer and lysates were incubated on dry ice for 30 minutes and centrifuged at 20000 g for 10 minutes. Clarified supernatants were transferred to new tubes. Pellets were extracted again and supernatants were combined. After drying the supernatant under nitrogen gas, extracts were dissolved in H2O (40 μL) and 10 μL were subjected to liquid chromatography mass spectrometry (LC-MS). Polar metabolites were measured by LC-MS using a TSQ Quantiva instrument fitted with a Luna NH2 HPLC column (5.0 μm; 4.6 mm×50 mm, Phenomenex). The following LC solvents were used: buffer A, 95:5 H2O/ACN, 20 mM ammonium hydroxide, 20 mM ammonium acetate; buffer B, 100% ACN. A typical LC run was 23 minutes long with a flow rate of 0.4 ml min-1 and consisted of the following steps: 85 to 30% buffer B over 3 minutes, 30 to 2% buffer B over 9 minutes, 2% buffer B for 3 minutes, 2 to 85% buffer B over 1 minute, and 85% buffer B for 7 minutes. MS analyses were performed using electrospray ionization (ESI) in negative or positive ion mode depending on the metabolites being analyzed. Negative mode and positive mode source parameters were the following: spray voltage 3.5 kV, ion transfer tube temperature of 325° C., and a vaporizer temperature of 275° C.
Liver samples were prepared from HFD-fed mice as described in Pcx activity assay. After determining Pcx activity from sample homogenates, the remaining supernatant was de-proteinated by perchloric acid (PCA)-KOH method using a commercial kit. De-proteinated samples were used to quantify hepatic metabolites using the commercial kits. Hepatic metabolites concentration was normalized to protein concentration and corrected for the loss of volume due to de-proteinization.

cAMP = cAMP levels in 3T3-L1 adipocytes (ELISA, biosensor, CRE-Luc reporter); format: cell-based
Experimental: (§1) 3T3-L1 cells were transduced with viral particles ([…]) in 24 well plates. Media was replaced after overnight incubation. 3-4 days after AAV infection, cells were treated as described for lipolysis assay. For cAMP analysis by biosensors, Downward Green cADDis cAMP Sensor (D0200G) and control mNeon Green (F0500G) produced in BacMam system was purchased from Montana Molecular. Brightfield and fluorescence images were taken every 10-20 min in I IncuCyte® Live-cell analysis system (Sartorius) and images were analyzed by IncuCyte® Analysis Software. High-resolution live cell imaging was performed with LSM 880 Airyscan microscope at 40× objective.

[2] = test system: human SVF-derived adipocytes; experiment: In vitro lipolysis assay (FFA release), human SVF-derived adipocytes; format: cell-based
Experimental: Differentiation of pre-adipocytes were based on previously published methods (Bunnell et al., 2008). Briefly, 3T3-L1 pre-adipocytes were grown to full confluence in DMEM, 10% FBS (GemCell, 100-500), 10 mM HEPES and antibiotic-antimycotic (full growth media). 2 days later, differentiation was induced by replacing the media with 1 μM dexamethasone, 1 μM rosiglitazone, 500 μM IBMX and 5 μg/ml insulin in full growth media 2 days later after reaching full confluence. Two days later media was replaced by differentiation induction media with 1 μM rosiglitazone and 5 μg/ml insulin for 4 days with media change after 2 days. Cells were kept in maintenance medium (full growth media with 5 μg/ml insulin) for 4 more days for full differentiation. For differentiation of mouse SVF derived adipocytes, the protocol was same except DMEM/F12 (10565018, ThermoFisher) was used as base media and initial differentiation induction media was kept for 3 days. For differentiation of human subcutaneous adipocytes, protocol and media from the manufacturer (C-12735, C-39437, Promocell) were used. […]
For in vitro lipolysis assay, cells were washed with PBS and media were changed to full growth media 1 day before experiment. […] FFAs were measured in the media using a commercial kit (Wako-NEFAHR2) and normalized to protein concentration. […] FFAs were measured and normalized by the explant weights.

PDE4D = experiment: Western blot of PDE4D phosphorylation in gWAT after injection; format: in vivo, mouse; conditions: 30 minutes after FGF1 injection 0.5 mg/kg
Experimental: Tissues were lysed in cold lysis buffer (50 mM Tris, pH 7.5, 150 mM NaCl, 1% NP40, 0.5% NaDoc, 0.1% SDS, 5% glycerol, 1 mM EDTA, protease and phosphatase inhibitors (complete and PhosSTOP (Roche)) by homogenization by bead-beater for 30 s. Samples were cleared for 10 min at 18,000 g at 4° C. and the middle clear phase was transferred to new tubes. A second 30 min centrifugation was performed and the middle clear phase was transferred to new tubes. Five ul protein extract was used for BCA assay to determine protein concentration. Samples were boiled in Laemmli buffer. SDS-PAGE and blotting were performed using gradient gels and Trans-Blot Turbo Transfer System (Bio-Rad). Antibodies used were PDE4D (12918-1-AP, Proteintech), pHSL-660 (4126S, Cell signaling), HSL (4107S, Cell Signaling), tubulin (CP06, Millipore Sigma), and GFP (A01388, GenScript). PDE4D3-pS44 phospho-specific antibody was generated using PDE4D3-S44 FRRHpSWISFDVDNGTSAGR peptide (SEQ ID NO: 20) (Mackenzie et al., 2002) by Pocono Rabbit Farm, using 70-day rabbit antibody production protocol and purified via affinity purification. Primary antibodies were incubated for 2 h at room temperature (RT) or overnight (ON) at 4° C. Blots were developed using SuperSignal West Pico PLUS Chemiluminescent Substrate (ThermoFisher Scientific) and imaged with BioRad GelDoc system.

[3] = test system: perilipin-HSL co-localization; experiment: Perilipin-GFP and HSL-mCherry co-localization in 3T3-L1 adipocytes; format: cell-based
Experimental: as §1

[4] = livers of ob/ob mice 2 h after FGF1 injection

FGF1: Recombinant fibroblast growth factor 1 protein, dissolved in PBS, injected subcutaneously
hepatic gluconeogenic substrates ([1]; HFD-fed adR1KO mice, 6 h after FGF1 0.5 mg/kg): insensitive to FGF1 treatment
reductions in hepatic gluconeogenic substrates ([1]; HFD-fed adR1WT mice, 6 h after FGF1 0.5 mg/kg): largely recapitulated
hepatic TCA cycle metabolites [1, 4]: not affected
hepatic acetyl-CoA levels [1, 4]: decreased
hepatic intermediates downstream of pyruvate (G6P, F6P, PG, PEP, OAA) [1, 4]: reduced
isoproterenol-induced increases in cAMP and cAMP/PKA signaling (cAMP; FGF1 pretreatment, ISO 100 nM): attenuated isoproterenol-induced increases in cAMP
FGF1-induced attenuation of isoproterenol-driven increase in cAMP with PDE4 inhibitor (cAMP; live 3T3-L1 cells, cAMP biosensor, roflumilast 2 μM): lost
anti-lipolytic activity of FGF1 with selective inhibitors of PDE4 ([2]; FGF1 100 ng/ml with roflumilast 2 μM): blocked by selective inhibitors of PDE4
basal and isoproterenol-induced lipolysis ([2]; FGF1 100 ng/ml, 10 min before ISO 1 nM): acutely suppressed basal and isoproterenol-induced lipolysis
PDE4D phosphorylation in gWAT (PDE4D): increase in PDE4D phosphorylation
isoproterenol-induced co-localization of perilipin-GFP and HSL-mCherry ([3]; FGF1 100 ng/ml pretreatment, ISO 100 nM): reduced the isoproterenol-induced co-localization of perilipin-GFP and HSL-mCherry
FGF1 effect on perilipin-HSL co-localization under PDE4 inhibition ([3]; roflumilast 2 μM, PDE3 inhibition did not abrogate): abrogated the FGF1 effect
